Data set [1] can be described thus: Inhibition of N-terminally tagged full-length HCV NS5B using biotinylated oligo(rU12), poly(rA) as template-primer assessed as incorporation of [3H]-UTP after 90 mins by Scintillation Proximity Assay. Also on record: species or system Hepacivirus hominis. Background: In a scintillation proximity assay essentially only radioactivity close to the scintillant gives light.

In data set [2] the test system is Hepatitis C virus. As to the kind of experiment: Antiviral activity against HCV infected in human HuH7 cells assessed as inhibition of viral replication after 72 hrs by RT-PCR analysis. It counts as functional, organism-based, Hepacivirus hominis. Particulars: Huh-7, 72 h.
Data set [3] concerns the target Genome polyprotein (Hepatitis C virus genotype 1b (isolate BK) (HCV), UniProt P26663). The experiment in a line: Inhibition of HCV genotype 1b BK NS5B expressed in Escherichia coli BL21 (DE3) after 1 hr.
Data set [4] has as its system Hepatitis C virus. The experiment in a line: Antiviral activity against HCV genotype 1b Con1 infected in human HuH7 cells assessed as inhibition of viral replication. The format is functional, cell-based, Hepacivirus hominis. Particulars: genotype 1b Con1, Huh-7.
The nature of data set [5]: Octanol-buffer distribution co-efficient, log D of the compound at pH 7.4 by shaking-flask method. It counts as physicochemical.
A short description of data set [6]: Solubility of the compound in phosphate buffer at pH 7.2. It counts as physicochemical.
Data set [7] is described as follows: Inhibition of N-terminal hexa-histidine tagged full-length HCV genotype 1b NS5B expressed in baculovirus-infected cells using 5'-biotinylated oligo(rU12), poly(rA) as template-primer assessed as incorporation of [3H]-UTP after 90 mins by Scintillation Proximity Assay. Also on record: species or system Hepatitis C virus subtype 1b.
Data set [8] is described as follows: Inhibition of N-terminal hexa-histidine tagged HCV NS5B expressed in baculovirus infected insect cells using 12 nucleotide RNA oligo-uridylate primer and complementary poly-adenylate template assessed as incorporation of UMP-[5,6-3H] into the chain elongated from oligo-U primer by TopCount analysis. More on the design: species or system Hepacivirus hominis.
For data set [9], the system named is Hepatitis C virus. The experiment in a line: Antiviral activity against HCV assessed as inhibition of viral replication by cell-based assay. It counts as functional, organism-based, Hepacivirus hominis.

≈ marks a conversion by molar mass, not a printed value.

Chain of Genome polyprotein (P26663 2420-3010 limits assumed): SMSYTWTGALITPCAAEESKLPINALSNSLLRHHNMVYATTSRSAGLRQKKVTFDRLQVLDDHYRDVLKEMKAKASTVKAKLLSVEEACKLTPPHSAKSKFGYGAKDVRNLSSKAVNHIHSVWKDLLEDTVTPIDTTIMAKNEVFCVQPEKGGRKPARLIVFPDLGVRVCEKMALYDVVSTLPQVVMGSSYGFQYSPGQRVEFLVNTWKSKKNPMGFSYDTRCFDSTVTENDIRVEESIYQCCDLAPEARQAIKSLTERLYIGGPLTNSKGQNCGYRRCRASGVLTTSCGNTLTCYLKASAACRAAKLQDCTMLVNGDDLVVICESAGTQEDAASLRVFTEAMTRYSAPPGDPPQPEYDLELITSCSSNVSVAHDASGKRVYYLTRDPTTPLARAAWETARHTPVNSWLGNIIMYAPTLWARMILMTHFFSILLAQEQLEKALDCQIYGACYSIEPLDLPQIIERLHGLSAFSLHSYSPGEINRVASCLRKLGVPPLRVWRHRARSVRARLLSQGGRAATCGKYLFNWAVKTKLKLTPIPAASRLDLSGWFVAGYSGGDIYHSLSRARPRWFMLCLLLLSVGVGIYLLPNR

In general, IC50 refers to the point on the concentration scale where inhibition reaches its midpoint. In general, EC50 refers to the concentration at which the effect is half-maximal. For the molecule `O=C(N[C@H](Cc1c[nH]c2ccc(O)cc12)c1cscn1)c1ccc2c(c1)nc(-c1ccoc1)n2C1CCCCC1`, the IC50 in [1] is 300 nM. Besides, the EC50 in [2] was determined as 1700 nM. Consider `O=C(O)COc1ccc2[nH]cc(C[C@H](NC(=O)c3ccc4c(c3)nc(-c3ccoc3)n4C3CCCCC3)C(=O)O)c2c1`, for which the IC50 in data set [1] is 27 nM. In the case of `CC(C)CNCc1c(C(=O)O)sc2c(C3CCCCC3)c(-c3ccccc3)n(CC(=O)N(C)C3CCN(C(C)C)C3)c12` (centres undefined), the half-inhibitory concentration (IC50) in data set [3] was found to be 11 nM. Besides, in data set [4], the EC50 was determined as 510 nM. In general, logD refers to the decadic logarithm of the distribution of all forms, ionised or not, between an organic phase and buffer at a given pH. Low readings indicate lower lipophilicity, high ones higher lipophilicity. A word on the solubility: it is the dissolved amount per volume that the medium holds. Consider `C[C@@H](NC(=O)c1ccc2c(c1)nc(-c1ccoc1)n2C1CCCCC1)C(=O)Nc1ccc(/C=C/C(=O)O)cc1`, for which the IC50 in data set [1] amounted to 130 nM. Also, the EC50 in [2] worked out at 6900 nM. The logD in data set [5] worked out at 2.2. For the same molecule, the concentration in solution in [6] (solubility) was 171 µM (≈ 90 µg/mL). In the case of `CN(C)C(=O)Cn1c(-c2ccccc2)c(C2CCCCC2)c2sc(C(=O)O)cc21`, in data set [3], the half-inhibitory concentration (IC50) was 58 nM.

`CC(C)(NC(=O)c1ccc2c(c1)nc(-c1ccoc1)n2C1CCCCC1)C(=O)Nc1ccc(/C=C/C(=O)O)cc1`: in data set [7], the IC50 was found to be 40 nM. For `COc1ccc(CCNC(=O)c2ccc3c(c2)nc(-c2ccccn2)n3C2CCCCC2)cc1OC`, the concentration for half-maximal inhibition (IC50) in data set [8] was 12000 nM. Regarding `O=C(O)c1ccc2c(C3CCCCC3)c(-c3ccccc3)n(CC(=O)N3CCOCC3)c2c1`, the half-maximal effective concentration (EC50) in data set [9] was 800 nM. Turning to `O=C(O)c1ccc2c(c1)nc(-c1ccoc1)n2C1CCCCC1`, the IC50 in [8] amounted to 1600 nM.

Take `CC(C)N1CCC(N(C)C(=O)Cn2c(-c3ccccc3)c(C3CCCCC3)c3sc(C(=O)O)cc32)C1` (centres undefined): half-maximal inhibition in [3] (IC50) was put at 10 nM. Moreover, the concentration for a half-maximal effect (EC50) in [4] was 130 nM. `CC(C)N1CC[C@@H](N2CCn3c(c(C4CCCCC4)c4sc(C(=O)O)cc43)-c3ccccc3C2)C1` registered an IC50 in [3] of 19 nM. Besides, the half-maximal effective concentration (EC50) in data set [4] was 150 nM. For `O=C(O)/C=C/c1ccc(NC(=O)C2(NC(=O)c3ccc4c(c3)nc(-c3ccoc3)n4C3CCCCC3)CCCC2)cc1`, in data set [9], the concentration for a half-maximal effect (EC50) amounted to 550 nM.
